For assay [1], the target named is T1, Alpha-1B adrenergic receptor (Homo sapiens) (UniProt P35368).
T1 sequence (whole entry): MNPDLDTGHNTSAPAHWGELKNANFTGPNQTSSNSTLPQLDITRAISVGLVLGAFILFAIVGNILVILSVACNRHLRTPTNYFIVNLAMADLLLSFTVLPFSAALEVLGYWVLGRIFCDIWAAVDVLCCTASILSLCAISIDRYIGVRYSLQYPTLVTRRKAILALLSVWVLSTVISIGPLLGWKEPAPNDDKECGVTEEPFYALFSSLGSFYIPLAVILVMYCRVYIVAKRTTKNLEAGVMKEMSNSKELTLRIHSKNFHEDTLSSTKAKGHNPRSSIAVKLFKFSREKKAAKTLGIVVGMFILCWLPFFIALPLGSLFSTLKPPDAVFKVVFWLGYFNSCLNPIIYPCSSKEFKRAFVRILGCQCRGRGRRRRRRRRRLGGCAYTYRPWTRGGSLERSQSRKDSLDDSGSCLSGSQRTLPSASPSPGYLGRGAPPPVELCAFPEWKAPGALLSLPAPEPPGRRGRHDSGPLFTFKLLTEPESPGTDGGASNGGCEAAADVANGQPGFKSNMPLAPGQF
Nature of the assay: ALPHA1B/R Eurofins SafetyScreen44 (BI). The following applies: Rattus norvegicus; Compound concentration 10.0 uM.

Assay [2] has as its target Platelet-activating factor receptor (Homo sapiens) (UniProt P25105). Put plainly: PAF/H Eurofins SafetyScreen44 (BI). The settings on record: Compound concentration 10.0 uM.
Assay [3] has as its target Histamine H3 receptor (Homo sapiens) (UniProt Q9Y5N1). Nature of the assay: H3/H Eurofins SafetyScreen44 (BI). The following applies: Compound concentration 10.0 uM.
Assay [4] deals with T2, Alpha-1D adrenergic receptor (Homo sapiens) (UniProt P25100).
T2 sequence (whole entry): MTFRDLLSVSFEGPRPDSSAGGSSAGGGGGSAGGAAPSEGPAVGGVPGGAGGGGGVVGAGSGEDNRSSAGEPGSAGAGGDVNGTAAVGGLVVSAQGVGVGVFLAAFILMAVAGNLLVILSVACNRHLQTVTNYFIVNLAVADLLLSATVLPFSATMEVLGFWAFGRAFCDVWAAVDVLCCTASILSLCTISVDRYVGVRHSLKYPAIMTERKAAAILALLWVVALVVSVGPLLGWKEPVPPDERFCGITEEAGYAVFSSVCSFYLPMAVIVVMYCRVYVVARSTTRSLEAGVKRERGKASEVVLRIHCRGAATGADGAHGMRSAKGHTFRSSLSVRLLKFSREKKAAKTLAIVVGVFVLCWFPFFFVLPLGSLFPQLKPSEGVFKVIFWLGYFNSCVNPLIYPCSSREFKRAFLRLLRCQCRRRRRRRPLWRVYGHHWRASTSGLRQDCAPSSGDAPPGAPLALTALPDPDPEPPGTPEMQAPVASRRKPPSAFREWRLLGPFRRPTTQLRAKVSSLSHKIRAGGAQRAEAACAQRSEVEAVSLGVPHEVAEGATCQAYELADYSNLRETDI
Nature of the assay: ALPHA1D/H Eurofins SafetyScreen44 (BI). The following applies: Compound concentration 10.0 uM.

For assay [5], the target named is P2Y purinoceptor 1 (Rattus norvegicus) (UniProt P49651). Nature of the assay: P2Y/RAT Eurofins SafetyScreen44 (BI). The following applies: Compound concentration 10.0 uM.
P2Y purinoceptor 1 (Rattus norvegicus), sequence (P49651 whole entry): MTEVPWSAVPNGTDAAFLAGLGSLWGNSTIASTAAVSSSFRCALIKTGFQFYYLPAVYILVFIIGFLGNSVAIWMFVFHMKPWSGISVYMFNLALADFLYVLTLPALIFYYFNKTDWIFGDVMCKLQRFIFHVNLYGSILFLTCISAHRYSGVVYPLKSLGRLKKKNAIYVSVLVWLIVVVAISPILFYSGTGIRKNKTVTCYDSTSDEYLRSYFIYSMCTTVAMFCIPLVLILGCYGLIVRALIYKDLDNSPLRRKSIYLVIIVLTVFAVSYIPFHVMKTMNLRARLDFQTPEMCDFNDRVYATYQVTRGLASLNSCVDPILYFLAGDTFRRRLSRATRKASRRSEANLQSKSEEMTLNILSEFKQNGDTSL
The target of assay [6] is Substance-P receptor (Homo sapiens) (UniProt P25103). Nature of the assay: NK1/HU Eurofins SafetyScreen44 (BI). The settings on record: Compound concentration 10.0 uM.
Substance-P receptor (Homo sapiens), sequence (P25103 whole entry): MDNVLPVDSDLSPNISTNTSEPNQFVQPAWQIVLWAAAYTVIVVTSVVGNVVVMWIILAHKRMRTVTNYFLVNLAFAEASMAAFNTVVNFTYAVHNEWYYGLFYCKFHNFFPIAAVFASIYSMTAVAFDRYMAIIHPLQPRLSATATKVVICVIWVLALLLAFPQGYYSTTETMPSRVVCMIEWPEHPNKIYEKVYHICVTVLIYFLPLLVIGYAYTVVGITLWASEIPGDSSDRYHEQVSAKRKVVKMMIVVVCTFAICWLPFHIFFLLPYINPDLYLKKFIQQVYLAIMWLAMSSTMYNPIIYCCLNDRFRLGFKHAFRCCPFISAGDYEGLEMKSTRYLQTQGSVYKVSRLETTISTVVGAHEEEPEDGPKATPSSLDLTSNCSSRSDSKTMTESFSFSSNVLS
Assay [7] concerns the target T3, Muscarinic acetylcholine receptor M3 (Homo sapiens, UniProt P20309). Nature of the assay: M3/HU Eurofins SafetyScreen44 (BI).
Assay [8] addresses Muscarinic acetylcholine receptor M4 (Homo sapiens) (UniProt P08173). The settings on record: Compound concentration 10.0 uM.
Assay [9] deals with T3, Muscarinic acetylcholine receptor M3. Put plainly: M3/H Eurofins SafetyScreen44 (BI). The following applies: Compound concentration 10.0 uM.
Assay [10] concerns the target cGMP-inhibited 3',5'-cyclic phosphodiesterase 3A (Homo sapiens) (UniProt Q14432). Nature of the assay: PDE3A Eurofins SafetyScreen44 (BI). The following applies: Compound concentration 10.0 uM.

T3 sequence (P20309 whole entry, looked up): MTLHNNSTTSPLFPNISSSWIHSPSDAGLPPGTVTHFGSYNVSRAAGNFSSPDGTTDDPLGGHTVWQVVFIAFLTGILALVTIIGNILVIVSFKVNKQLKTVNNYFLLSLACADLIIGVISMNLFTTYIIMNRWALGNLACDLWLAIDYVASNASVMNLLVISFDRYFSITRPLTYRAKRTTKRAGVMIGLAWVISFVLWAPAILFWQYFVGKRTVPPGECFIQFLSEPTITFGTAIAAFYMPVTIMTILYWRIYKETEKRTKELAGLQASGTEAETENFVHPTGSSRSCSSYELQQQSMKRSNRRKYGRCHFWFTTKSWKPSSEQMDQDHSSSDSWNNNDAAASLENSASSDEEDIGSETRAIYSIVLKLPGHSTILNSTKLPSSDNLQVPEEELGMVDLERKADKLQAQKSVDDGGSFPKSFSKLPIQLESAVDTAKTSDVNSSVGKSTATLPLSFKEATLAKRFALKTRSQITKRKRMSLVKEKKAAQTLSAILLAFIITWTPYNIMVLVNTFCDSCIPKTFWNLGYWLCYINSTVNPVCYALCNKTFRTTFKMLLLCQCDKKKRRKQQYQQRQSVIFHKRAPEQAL
Muscarinic acetylcholine receptor M4 (Homo sapiens), sequence (P08173 whole entry): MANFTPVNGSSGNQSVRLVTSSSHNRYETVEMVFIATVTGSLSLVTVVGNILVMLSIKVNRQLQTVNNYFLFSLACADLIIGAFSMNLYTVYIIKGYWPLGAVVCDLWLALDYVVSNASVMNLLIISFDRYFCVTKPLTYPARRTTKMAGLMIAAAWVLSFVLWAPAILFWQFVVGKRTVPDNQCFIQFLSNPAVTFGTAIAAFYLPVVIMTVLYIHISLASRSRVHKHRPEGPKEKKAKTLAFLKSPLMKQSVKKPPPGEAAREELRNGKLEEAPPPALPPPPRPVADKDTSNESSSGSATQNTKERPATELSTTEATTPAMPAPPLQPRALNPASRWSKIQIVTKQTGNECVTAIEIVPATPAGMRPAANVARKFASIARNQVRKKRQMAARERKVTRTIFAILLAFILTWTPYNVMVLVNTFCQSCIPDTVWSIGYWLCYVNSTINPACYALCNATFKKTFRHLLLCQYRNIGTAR
Histamine H3 receptor (Homo sapiens), sequence (Q9Y5N1 whole entry): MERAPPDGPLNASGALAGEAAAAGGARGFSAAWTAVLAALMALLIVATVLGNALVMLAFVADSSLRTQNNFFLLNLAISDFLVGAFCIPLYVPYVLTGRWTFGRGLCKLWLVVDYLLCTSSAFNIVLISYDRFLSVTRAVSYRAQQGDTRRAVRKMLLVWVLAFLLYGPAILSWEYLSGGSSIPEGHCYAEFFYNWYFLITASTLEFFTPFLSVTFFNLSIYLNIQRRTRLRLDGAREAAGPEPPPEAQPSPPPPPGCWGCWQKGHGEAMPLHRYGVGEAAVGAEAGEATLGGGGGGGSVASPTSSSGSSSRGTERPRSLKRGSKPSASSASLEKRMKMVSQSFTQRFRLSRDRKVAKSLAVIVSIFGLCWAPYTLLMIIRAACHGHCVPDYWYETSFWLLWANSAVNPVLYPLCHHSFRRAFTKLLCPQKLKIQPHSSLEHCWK
cGMP-inhibited 3',5'-cyclic phosphodiesterase 3A (Homo sapiens), sequence (Q14432 whole entry): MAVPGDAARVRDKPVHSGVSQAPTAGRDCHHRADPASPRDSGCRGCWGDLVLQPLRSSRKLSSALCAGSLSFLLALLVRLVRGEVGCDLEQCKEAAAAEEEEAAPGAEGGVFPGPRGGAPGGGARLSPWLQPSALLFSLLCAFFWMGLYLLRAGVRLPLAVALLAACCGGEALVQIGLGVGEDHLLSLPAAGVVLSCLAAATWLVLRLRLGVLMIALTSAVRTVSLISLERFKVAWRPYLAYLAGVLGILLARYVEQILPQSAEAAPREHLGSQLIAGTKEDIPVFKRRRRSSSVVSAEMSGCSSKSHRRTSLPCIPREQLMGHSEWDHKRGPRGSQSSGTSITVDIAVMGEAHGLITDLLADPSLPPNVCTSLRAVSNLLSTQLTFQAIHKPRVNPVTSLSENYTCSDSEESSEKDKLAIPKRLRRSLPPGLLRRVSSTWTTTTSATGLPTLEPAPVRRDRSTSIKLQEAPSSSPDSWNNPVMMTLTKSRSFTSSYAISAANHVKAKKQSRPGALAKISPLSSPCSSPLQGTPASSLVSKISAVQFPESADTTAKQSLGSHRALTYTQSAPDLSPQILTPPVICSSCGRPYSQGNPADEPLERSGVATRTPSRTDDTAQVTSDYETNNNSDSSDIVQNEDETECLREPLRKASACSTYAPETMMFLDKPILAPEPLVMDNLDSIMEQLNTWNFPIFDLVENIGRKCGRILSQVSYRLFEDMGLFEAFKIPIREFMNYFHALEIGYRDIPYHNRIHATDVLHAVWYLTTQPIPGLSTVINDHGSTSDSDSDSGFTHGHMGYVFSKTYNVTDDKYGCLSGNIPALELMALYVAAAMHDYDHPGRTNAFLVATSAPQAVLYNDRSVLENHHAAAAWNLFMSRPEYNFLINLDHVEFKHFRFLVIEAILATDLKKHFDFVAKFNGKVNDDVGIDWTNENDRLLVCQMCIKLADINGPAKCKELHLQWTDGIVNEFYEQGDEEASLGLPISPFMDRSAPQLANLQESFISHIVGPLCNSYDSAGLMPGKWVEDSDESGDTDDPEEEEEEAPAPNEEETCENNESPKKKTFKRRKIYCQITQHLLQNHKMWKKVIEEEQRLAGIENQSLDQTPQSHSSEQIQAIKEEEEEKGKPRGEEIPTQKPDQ
Platelet-activating factor receptor (Homo sapiens), sequence (P25105 whole entry): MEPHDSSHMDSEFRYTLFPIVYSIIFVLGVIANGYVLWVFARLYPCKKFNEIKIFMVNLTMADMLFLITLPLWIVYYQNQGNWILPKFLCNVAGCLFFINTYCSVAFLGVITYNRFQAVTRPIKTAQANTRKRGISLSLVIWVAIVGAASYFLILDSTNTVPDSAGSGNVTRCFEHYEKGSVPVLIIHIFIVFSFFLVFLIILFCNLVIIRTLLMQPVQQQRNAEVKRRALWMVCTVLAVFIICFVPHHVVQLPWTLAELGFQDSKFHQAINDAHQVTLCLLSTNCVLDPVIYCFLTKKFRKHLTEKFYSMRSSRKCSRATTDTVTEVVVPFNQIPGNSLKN

Regarding `Cc1cc(OCCC(C)(C)O)cc(C)c1-c1ccc(F)c2c1CC[C@H]2Oc1ccc2c(c1)OC[C@H]2CC(=O)O`, the residual activity in [1] is 114%; in [2] it was 97%; in assay [3], 111%; in assay [4] it was 85%; in [5], 87%; in assay [6], 113%. Besides, the residual activity in assay [7] (Compound concentration 0.3 uM) is 83%; in [7] (Compound concentration 1.0 uM) it was 75%; in assay [7] (Compound concentration 3.0 uM) it was 60%; in assay [7] (Compound concentration 10.0 uM) it was 54%; in assay [7] (Compound concentration 30.0 uM) it was 28%.

On to `COCCCS(=O)(=O)c1cc(C)c(-c2ccc(F)c3c2CC[C@H]3Oc2ccc3c(c2)OC[C@H]3CC(=O)O)c(C)c1`, for which the inhibition in [8] is -8.43%. Besides, the residual activity was 95% in [9] and 100% in assay [10].

By inhibition is commonly meant the change of the read-out against control, counted positive when it falls.

Source of the values: ChEMBL document CHEMBL5058643, “Data for DCP probe BI-2081” (2022).
